In US10124085B2, “Antimicrobial and antiviral hygienic products” (priority 2014, dated 2018):

Key:
Escherichia coli = assay: Modified disc diffusion method; format: cell-based; parameters: key: +sign indicates that the boron compounds had antimicrobial activity.; −sign indicates that there is no antimicrobial activity; conditions: disc immersed in pulverized boron compound; Ofloxacin 10 μg/disc; 36±1° C., 24 hours
Staphylococcus aureus = assay: Modified disc diffusion method; format: cell-based; parameters: key: +sign indicates that the boron compounds had antimicrobial activity.; −sign indicates that there is no antimicrobial activity; conditions: disc immersed in pulverized boron compound; Ofloxacin 10 μg/disc; 36±1° C., 24 hours
Pseudomonas aeruginosa = assay: Modified disc diffusion method; format: cell-based; parameters: key: +sign indicates that the boron compounds had antimicrobial activity.; −sign indicates that there is no antimicrobial activity; conditions: disc immersed in pulverized boron compound; Ofloxacin 10 μg/disc; 36±1° C., 24 hours
Candida albicans = assay: Modified disc diffusion method; format: cell-based; parameters: key: +sign indicates that the boron compounds had antimicrobial activity.; −sign indicates that there is no antimicrobial activity; conditions: disc immersed in pulverized boron compound; Nystatin 30 μg/disc; 36±1° C., 48 hours
Candida glabrata = assay: Modified disc diffusion method; format: cell-based; parameters: key: +sign indicates that the boron compounds had antimicrobial activity.; −sign indicates that there is no antimicrobial activity; conditions: disc immersed in pulverized boron compound; Nystatin 30 μg/disc; 36±1° C., 48 hours
Aspergillus niger = assay: Modified disc diffusion method; format: cell-based; parameters: key: +sign indicates that the boron compounds had antimicrobial activity.; −sign indicates that there is no antimicrobial activity; conditions: disc immersed in pulverized boron compound; Nystatin 30 μg/disc; 25±1° C., 72 hours
Fusarium oxysporum = assay: Modified disc diffusion method; format: cell-based; parameters: key: +sign indicates that the boron compounds had antimicrobial activity.; −sign indicates that there is no antimicrobial activity; conditions: disc immersed in pulverized boron compound; Nystatin 30 μg/disc; 25±1° C., 72 hours
Botrytis cinerea [1] = assay: Modified disc diffusion method; format: cell-based; parameters: key: +sign indicates that the boron compounds had antimicrobial activity.; −sign indicates that there is no antimicrobial activity; conditions: disc immersed in pulverized boron compound; Nystatin 30 μg/disc; 25±1° C., 72 hours
Penicillium vinaceum = assay: Modified disc diffusion method; format: cell-based; parameters: key: +sign indicates that the boron compounds had antimicrobial activity.; −sign indicates that there is no antimicrobial activity; conditions: disc immersed in pulverized boron compound; Nystatin 30 μg/disc; 25±1° C., 72 hours
Penicillium expansum = assay: Modified disc diffusion method; format: cell-based; parameters: key: +sign indicates that the boron compounds had antimicrobial activity.; −sign indicates that there is no antimicrobial activity; conditions: disc immersed in pulverized boron compound; Nystatin 30 μg/disc; 25±1° C., 72 hours
[2] = system: all of the tested microorganisms; format: cell-based
[3] = system: Human adenovirus type 5 Adenoid 75 strain; assay: Antiviral activity test in HEp-2 cell culture (TCID50, Spearman-Karber); format: cell-based; conditions: for Reduction ratio in virus titration / Virus titration with Chlorhexidine gluconate: 0.1%, 20° C.; for Virus titration with Chlorhexidine gluconate: reference virus 5.5
[4] = system: Poliovirus type 1 Chat strain; format: cell-based
[5] = system: Human Herpes simplex virus type 1 (HSV-1) MacIntyre strain; assay: Antiviral activity test in Vero cell culture (TCID50, Spearman-Karber); format: cell-based; conditions: for Reduction ratio in virus titration / Virus titration with Chlorhexidine gluconate: 0.1%, 20° C.; for Virus titration with Chlorhexidine gluconate: reference virus 7.3
[6] = system: HEp-2 cells (ATCC CCL-23)
Herpesvirus hominis = conditions: 0.02% chlorhexidine gluconate; 90-minute exposure at room temperature; cited from earlier work
poliovirus = conditions: 0.02% chlorhexidine gluconate; 90-minute exposure at room temperature; cited from earlier work
adenovirus = conditions: 0.02% chlorhexidine gluconate; 90-minute exposure at room temperature; cited from earlier work
enteric bacteria = conditions: cited from earlier work
[7] = system: various bacterial strains; conditions: 10-minute exposure; 0.02% chlorhexidine solution; cited from earlier work
Penicillium expansium = conditions: cited from earlier work
Botrytis cinerea [8] = conditions: 1% concentration; cited from earlier work
streptococci = conditions: cited from earlier work
micrococci = conditions: cited from earlier work
Propionibacterium acnes = conditions: cited from earlier work
[9] = room temperature (20° C.), clean and polluted media, 1 and 60 minute application periods
[10] = used directly without being diluted, room temperature (20° C.), 1 and 60 minute application periods

O.O.O.O.O.[Na+].[Na+].[O-]B1OB2OB([O-])OB(O1)O2 [BP, Borax pentahydrate]
Antimicrobial activity (inhibition zone) (Escherichia coli): + | Antimicrobial activity (inhibition zone) (Staphylococcus aureus): + | Antimicrobial activity (inhibition zone) (Pseudomonas aeruginosa): + | Antimicrobial activity (inhibition zone) (Candida albicans): + | Antimicrobial activity (inhibition zone) (Candida glabrata): + | Antimicrobial activity (inhibition zone) (Aspergillus niger): + | Antimicrobial activity (inhibition zone) (Fusarium oxysporum): + | Antimicrobial activity (inhibition zone) (Botrytis cinerea [1]): + | Antimicrobial activity (inhibition zone) (Penicillium vinaceum): + | Antimicrobial activity (inhibition zone) (Penicillium expansum): + | concentration giving the most effective antimicrobial (antifungal, anticandidal and antibacterial) results [2]: 5.5 mg/cm^2

N=C(NCCCCCCNC(=N)NC(=N)Nc1ccc(Cl)cc1)NC(=N)Nc1ccc(Cl)cc1.O=C(O)[C@H](O)[C@@H](O)[C@H](O)[C@H](O)CO.O=C(O)[C@H](O)[C@@H](O)[C@H](O)[C@H](O)CO [Chlorhexidine gluconate]
Reduction ratio in virus titration ([3]; 1 minute, Clean medium): 4.0 Logarithmic TCID50 | Virus titration with Chlorhexidine gluconate ([3]; 1 minute, Clean medium): 1.5 Logarithmic TCID50 | Reduction ratio in virus titration ([3]; 1 minute, Polluted medium): 4.0 Logarithmic TCID50 | Virus titration with Chlorhexidine gluconate ([3]; 1 minute, Polluted medium): 1.5 Logarithmic TCID50 | Reduction ratio in virus titration ([3]; 60 minutes, Clean medium): 4.5 Logarithmic TCID50 | Virus titration with Chlorhexidine gluconate ([3]; 60 minutes, Clean medium): 1.0 Logarithmic TCID50 | Reduction ratio in virus titration ([3]; 60 minutes, Polluted medium): 4.0 Logarithmic TCID50 | Virus titration with Chlorhexidine gluconate ([3]; 60 minutes, Polluted medium): 1.5 Logarithmic TCID50 | reduction in virus titration [3, 9]: at least 4 log | active against virus [3, 10]: 99.9% | reduction in virus titration [4]: at least 4 log | Reduction ratio in virus titration ([4]; 0.1%, 20° C.): 4.2 Logarithmic TCID50 | Virus titration with Chlorhexidine gluconate ([4]; 0.1%, 20° C.): 1.3 Logarithmic TCID50 | Reduction ratio in virus titration ([5]; 1 minute, Clean medium): 4 Logarithmic TCID50 | Virus titration with Chlorhexidine gluconate ([5]; 1 minute, Clean medium): 2.3 Logarithmic TCID50 | Reduction ratio in virus titration ([5]; 1 minute, Polluted medium): 4 Logarithmic TCID50 | Virus titration with Chlorhexidine gluconate ([5]; 1 minute, Polluted medium): 2.3 Logarithmic TCID50 | Reduction ratio in virus titration ([5]; 60 minutes, Clean medium): 4 Logarithmic TCID50 | Virus titration with Chlorhexidine gluconate ([5]; 60 minutes, Clean medium): 2.3 Logarithmic TCID50 | Reduction ratio in virus titration ([5]; 60 minutes, Polluted medium): 4 Logarithmic TCID50 | Virus titration with Chlorhexidine gluconate ([5]; 60 minutes, Polluted medium): 2.3 Logarithmic TCID50 | reduction in virus titration [5, 9]: at least 4 log | active against virus [5, 10]: 99.9% | cytopathic effect on the cells in the cell culture [6]: showed cytopathic effect | lowest ratio which does not show cytopathic effect [6]: 0.1% | reduction of virus titration (Herpesvirus hominis): more than 99% | activity against virus (poliovirus): ineffective | activity against virus (adenovirus): ineffective

C[C@@H]1[C@H](O)[C@@H](C)/C=C/C=C/CC/C=C/C=C/C=C/C=C/C(O[C@H]2O[C@H](C)[C@@H](O)[C@H](N)[C@@H]2O)CC2O[C@](O)(CC(O)C(O)CCC(O)CC(O)CC(O)CC(=O)O[C@H]1C)CC(O)C2C(=O)O (stereo partly drawn) [Nystatin]
Antimicrobial activity (inhibition zone) (Candida albicans): + | Antimicrobial activity (inhibition zone) (Candida glabrata): + | Antimicrobial activity (inhibition zone) (Aspergillus niger): + | Antimicrobial activity (inhibition zone) (Fusarium oxysporum): + | Antimicrobial activity (inhibition zone) (Botrytis cinerea [1]): + | Antimicrobial activity (inhibition zone) (Penicillium vinaceum): + | Antimicrobial activity (inhibition zone) (Penicillium expansum): +

CC1COc2c(N3CCN(C)CC3)c(F)cc3c(=O)c(C(=O)O)cn1c23 (stereo not drawn) [Ofloxacin]
Antimicrobial activity (inhibition zone) (Escherichia coli): + | Antimicrobial activity (inhibition zone) (Staphylococcus aureus): + | Antimicrobial activity (inhibition zone) (Pseudomonas aeruginosa): +

O.O.O.O.[Na+].[O-]B1OO1 [SPT, Sodium perborate tetrahydrate]
Antimicrobial activity (inhibition zone) (Escherichia coli): + | Antimicrobial activity (inhibition zone) (Staphylococcus aureus): + | Antimicrobial activity (inhibition zone) (Pseudomonas aeruginosa): + | Antimicrobial activity (inhibition zone) (Candida albicans): + | Antimicrobial activity (inhibition zone) (Candida glabrata): + | Antimicrobial activity (inhibition zone) (Aspergillus niger): + | Antimicrobial activity (inhibition zone) (Fusarium oxysporum): + | Antimicrobial activity (inhibition zone) (Botrytis cinerea [1]): + | Antimicrobial activity (inhibition zone) (Penicillium vinaceum): + | Antimicrobial activity (inhibition zone) (Penicillium expansum): + | concentration giving the most effective antimicrobial (antifungal, anticandidal and antibacterial) results [2]: 5.5 mg/cm^2

OB(O)O [boric acid]
antibacterial activity (enteric bacteria): has antibacterial activity

[H]/N=C(\N/C(=N/[H])NCCCCCCNC(=N)NC(=N)Nc1ccc(Cl)cc1)Nc1ccc(Cl)cc1 [chlorhexidine]
inhibition of microorganisms [7]: 99.99%

[K+].[K+].[O-]B1OB2OB([O-])OB(O1)O2 [potassium tetraborate]
minimum concentration preventing micelle growth (Penicillium expansium): 0.1% | control of mold causing disease on the grapes (Botrytis cinerea [8]): could control

Oc1cc(Cl)ccc1Oc1ccc(Cl)cc1Cl [triclosan]
effectiveness relative to hexachlorophene (streptococci): less effective | effectiveness relative to hexachlorophene (micrococci): less effective | effectiveness relative to hexachlorophene (Propionibacterium acnes): less effective

Sodium Borate [SB]
Antimicrobial activity (inhibition zone) (Escherichia coli): + | Antimicrobial activity (inhibition zone) (Staphylococcus aureus): + | Antimicrobial activity (inhibition zone) (Pseudomonas aeruginosa): + | Antimicrobial activity (inhibition zone) (Candida albicans): + | Antimicrobial activity (inhibition zone) (Candida glabrata): + | Antimicrobial activity (inhibition zone) (Aspergillus niger): + | Antimicrobial activity (inhibition zone) (Fusarium oxysporum): + | Antimicrobial activity (inhibition zone) (Botrytis cinerea [1]): + | Antimicrobial activity (inhibition zone) (Penicillium vinaceum): + | Antimicrobial activity (inhibition zone) (Penicillium expansum): + | concentration giving the most effective antimicrobial (antifungal, anticandidal and antibacterial) results [2]: 4 mg/cm^2
